We go through 33 compounds from ChEMBL document CHEMBL1148505, “Inhibition of Plasmodium falciparum fatty acid biosynthesis: evaluation of FabG, FabZ, and FabI as drug targets for flavonoids” (J Med Chem, 2006).

The target of one experiment is T1, Fatty acid synthase (Plasmodium falciparum, UniProt Q965D7).
T1 sequence (Q965D7 whole entry): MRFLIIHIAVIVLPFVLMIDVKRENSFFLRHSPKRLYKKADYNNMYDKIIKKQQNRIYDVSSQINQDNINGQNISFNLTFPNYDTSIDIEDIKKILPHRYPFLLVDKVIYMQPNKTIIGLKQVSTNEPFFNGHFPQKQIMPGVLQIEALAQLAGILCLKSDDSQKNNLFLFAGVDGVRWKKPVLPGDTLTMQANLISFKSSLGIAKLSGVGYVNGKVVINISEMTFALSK
The experiment in a line: Inhibition of FabZ.

Experiment [1] deals with Plasmodium falciparum. The experiment in a line: Antiplasmodial activity against chloroquine-sensitive Plasmodium falciparum NF54. Type of experiment: functional, organism-based.
The target of experiment [2] is T2, Enoyl-acyl-carrier protein reductase (Plasmodium falciparum) (UniProt Q965D5).
T2 sequence (whole entry): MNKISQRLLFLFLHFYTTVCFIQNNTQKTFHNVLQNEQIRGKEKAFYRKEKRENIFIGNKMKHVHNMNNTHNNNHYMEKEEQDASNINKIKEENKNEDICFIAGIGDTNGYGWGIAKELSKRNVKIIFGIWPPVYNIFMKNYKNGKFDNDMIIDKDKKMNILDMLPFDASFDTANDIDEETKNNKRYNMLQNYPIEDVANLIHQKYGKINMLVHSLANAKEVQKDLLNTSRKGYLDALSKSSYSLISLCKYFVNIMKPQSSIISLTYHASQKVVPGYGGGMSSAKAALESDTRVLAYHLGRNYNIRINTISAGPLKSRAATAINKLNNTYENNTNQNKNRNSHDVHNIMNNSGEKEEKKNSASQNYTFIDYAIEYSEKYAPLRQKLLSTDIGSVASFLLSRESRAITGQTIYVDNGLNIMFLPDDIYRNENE
Description: Inhibition of FabI at 100 uM.

Experiment [3] deals with T3, 3-oxoacyl-acyl-carrier protein reductase (Plasmodium falciparum) (UniProt Q965D6).
T3 sequence (whole entry): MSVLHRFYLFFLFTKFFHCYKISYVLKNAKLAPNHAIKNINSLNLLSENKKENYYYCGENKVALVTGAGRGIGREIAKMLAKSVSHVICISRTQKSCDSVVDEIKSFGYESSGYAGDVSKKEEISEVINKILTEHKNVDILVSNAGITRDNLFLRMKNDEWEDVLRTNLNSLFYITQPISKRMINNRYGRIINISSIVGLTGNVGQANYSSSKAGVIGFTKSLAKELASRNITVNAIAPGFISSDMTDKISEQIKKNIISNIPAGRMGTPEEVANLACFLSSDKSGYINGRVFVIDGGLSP
The experiment in a line: Inhibition of FabG at 100 uM.

In experiment [4] the target is T4, Fatty acid synthase (Plasmodium falciparum) (UniProt Q965D7).
T4 sequence (whole entry): T1 sequence (Q965D7 whole entry)
Description: Inhibition of FabZ at 100 uM.

Experiment [5] has as its target T5, Enoyl-acyl-carrier protein reductase (Plasmodium falciparum, UniProt Q965D5).
T5 sequence (Q965D5 whole entry): T2 sequence (whole entry)
Description: Inhibition of FabI.

Experiment [6] deals with T6, 3-oxoacyl-acyl-carrier protein reductase (Plasmodium falciparum, UniProt Q965D6).
T6 sequence (Q965D6 whole entry): T3 sequence (whole entry)
Description: Inhibition of FabG.

Experiment [7] deals with Plasmodium falciparum. Description: Antiplasmodial activity against chloroquine-resistant Plasmodium falciparum K1. Type of experiment: functional, organism-based.

Activity calls are given as the source filed them. The rule behind the calls is not given here. Bounds are passed on as bounds.

As a reminder, the IC50 is the concentration that inhibits the measured activity by half. Higher therefore signals a need for much substance. With `COc1cc(OC)c2c(c1C)O[C@H](c1ccccc1)CC2=O`, the values for the IC50 on Fatty acid synthase and with Plasmodium falciparum [1] were 40 µM and 19.8 µM, respectively. Besides, the result in experiment [2] and in experiment [3] was inactive.

On to `O=c1c(O)c(-c2ccccc2)oc2ccc(O)cc12`, for which, in the experiment on Plasmodium falciparum [1], inhibition was half-maximal at 36.4 µM (IC50). Moreover, the outcome in experiment [4], in experiment [2] and in experiment [3] was inactive.

In the case of `COc1cc2c(c(O)c1OC)C(=O)C[C@@H](c1ccc(O)cc1)O2`, inhibition in the experiment on Plasmodium falciparum [1] was half-maximal at 8.8 µM (IC50). The result in experiment [4], in experiment [2] and in experiment [3] was inactive.

Regarding `COc1ccc2c(=O)cc(-c3ccccc3)oc2c1OC`, the IC50 in the experiment on Plasmodium falciparum [1] worked out at 40.9 µM. For the same compound, the outcome in experiment [4], in experiment [2] and in experiment [3] was inactive.

Take `O=c1c(O)c(-c2ccccc2)oc2cc(O)ccc12` [3,7-DIHYDROXYFLAVONE]: the IC50 worked out at 10 µM in experiment [5] and 49.2 µM with Plasmodium falciparum [1]. Further, the result in experiment [4] and in experiment [3] was inactive.

In the experiment on Plasmodium falciparum [1], `O=c1cc(-c2ccccc2)oc2cccc(O)c12` [5-HYDROXYFLAVONE] registered an IC50 of 65.9 µM. Further, the result in experiment [4], in experiment [2] and in experiment [3] was inactive.

`O=c1cc(-c2ccccc2)oc2ccc(O)cc12` [6-HYDROXYFLAVONE]: the IC50 against Fatty acid synthase stood at 30 µM; in the experiment on Plasmodium falciparum [1] it was 5.3 µM. For the same compound, the result in experiment [2] and in experiment [3] was inactive.

As to `O=c1cc(-c2ccccc2)oc2cc(O)ccc12` [7-HYDROXYFLAVONE], the IC50 is 20 µM at Fatty acid synthase and 65.5 µM with Plasmodium falciparum [1]. Besides, the outcome in experiment [2] and in experiment [3] was inactive.

With `Oc1cc(O)c2c(c1)O[C@@H](c1ccc(O)c(O)c1)[C@@H](O)C2` [(+)-EPICATECHIN], in the experiment with Plasmodium falciparum [1], the IC50 is greater than 150 µM. The result in experiment [4], in experiment [2] and in experiment [3] was inactive.

Consider `Oc1cc(O)c2c(c1)O[C@@H](c1ccc(O)c(O)c1)[C@H](O)C2` [(-)-CATECHIN], for which the IC50 in the experiment with Plasmodium falciparum [1] is greater than 150 µM. Besides, the outcome in experiment [4], in experiment [2] and in experiment [3] was inactive.

The compound `Oc1cc(O)c2c(c1)O[C@H](c1ccc(O)c(O)c1)[C@H](O)C2` [(-)-EPICATECHIN] gave an IC50 in the experiment on Plasmodium falciparum [1] greater than 150 µM. Also, the outcome in experiment [4], in experiment [2] and in experiment [3] was inactive.

Consider `Oc1cc(O)c2c(c1)O[C@@H](c1cc(O)c(O)c(O)c1)[C@H](O)C2` [(-)-GALLOCATECHIN], for which, in the experiment on Plasmodium falciparum [1], the IC50 was greater than 150 µM. In addition, the result in experiment [4], in experiment [2] and in experiment [3] was inactive.

Turning to `O=c1cc(-c2ccc(O)cc2)oc2cc(O)cc(O)c12` [APIGENIN], the IC50 in experiment [5] was 50 µM; in the experiment with Plasmodium falciparum [1], 17.4 µM. For the same compound, the outcome in experiment [4] and in experiment [3] was inactive.

Take `COc1ccc(-c2coc3cc(O)cc(O)c3c2=O)cc1` [BIOCHANIN]: the figures for the IC50 against Fatty acid synthase and in the experiment with Plasmodium falciparum [1] were 8 µM and 34.3 µM, respectively. The result in experiment [2] and in experiment [3] was inactive.

On to `O=c1cc(-c2ccccc2)oc2cc(O)cc(O)c12` [CHRYSIN], for which the IC50 in experiment [6] stood at 10 µM; in the experiment with Plasmodium falciparum [1], 29.8 µM. Besides, the result in experiment [4] and in experiment [2] was inactive.

Consider `Oc1cc(O)c2c(c1)O[C@H](c1ccc(O)c(O)c1)[C@@H](O)C2` [CIANIDANOL], for which the IC50 with Plasmodium falciparum [1] amounted to 144 µM. Besides, the outcome in experiment [4], in experiment [2] and in experiment [3] was inactive.

With `COc1cc2oc(-c3ccc(O)cc3)cc(=O)c2c(O)c1OC` [CIRSIMARITIN], the IC50 turned out to be 70 µM in experiment [6] and 16.9 µM in the experiment on Plasmodium falciparum [1]. Moreover, the outcome in experiment [4] and in experiment [2] was inactive.

Turning to `O=c1c(-c2ccc(O)cc2)coc2cc(O)ccc12` [DAIDZEIN], the IC50 on Fatty acid synthase came to 30 µM; in the experiment on Plasmodium falciparum [1], 104 µM. Besides, the result in experiment [2] and in experiment [3] was inactive.

Regarding `O=C(O[C@@H]1Cc2c(O)cc(O)cc2O[C@@H]1c1ccc(O)c(O)c1)c1cc(O)c(O)c(O)c1` [EPICATECHIN GALLATE], the IC50 at Fatty acid synthase was 0.4 µM; in experiment [5], 0.2 µM; in experiment [6] it was 1 µM; with Plasmodium falciparum [1], 40 µM; with Plasmodium falciparum [7] it was 11.3 µM.

With `Oc1cc(O)c2c(c1)O[C@H](c1cc(O)c(O)c(O)c1)[C@H](O)C2` [EPIGALLOCATECHIN], the IC50 in the experiment with Plasmodium falciparum [1] was greater than 150 µM. For the same compound, the result in experiment [4], in experiment [2] and in experiment [3] was inactive.

Regarding `O=C(O[C@@H]1Cc2c(O)cc(O)cc2O[C@@H]1c1cc(O)c(O)c(O)c1)c1cc(O)c(O)c(O)c1` [EPIGALOCATECHIN GALLATE], the IC50 against Fatty acid synthase amounted to 0.4 µM; in experiment [5], 0.2 µM; with Plasmodium falciparum [1], 25.5 µM; with Plasmodium falciparum [7] it was 9.9 µM.

With `O=c1c(O)c(-c2ccc(O)c(O)c2)oc2cc(O)ccc12` [FISETIN], the IC50 turned out to be 2 µM against Fatty acid synthase; 1 µM in experiment [5]; 4.1 µM in experiment [6]; 8.2 µM with Plasmodium falciparum [1]; 6.5 µM in the experiment with Plasmodium falciparum [7].

Take `O=c1cc(-c2ccccc2)oc2ccccc12` [FLAVONE]: it took 60.8 µM to reach half-maximal inhibition in the experiment with Plasmodium falciparum [1] (IC50). For the same compound, the result in experiment [4], in experiment [2] and in experiment [3] was inactive.

In the case of `O=c1c(O)c(-c2ccccc2)oc2ccccc12` [FLAVONOL], in the experiment with Plasmodium falciparum [1], the IC50 came to 24 µM. In addition, the result in experiment [4], in experiment [2] and in experiment [3] was inactive.

With `O=c1c(O)c(-c2ccccc2)oc2cc(O)cc(O)c12` [GALANGIN], the figures for the IC50 (in experiment [6]; in the experiment on Plasmodium falciparum [1]) were 100 µM and 39.4 µM, respectively. Further, the result in experiment [4] and in experiment [2] was inactive.

As to `O=C(O[C@@H]1Cc2c(O)cc(O)cc2O[C@H]1c1cc(O)c(O)c(O)c1)c1cc(O)c(O)c(O)c1` [GALLOCATECHIN GALLATE], the IC50 against Fatty acid synthase came out at 0.6 µM; in experiment [5] it was 0.5 µM; in the experiment on Plasmodium falciparum [1], 40.1 µM; in the experiment with Plasmodium falciparum [7], 6.2 µM.

Take `O=c1c(-c2ccc(O)cc2)coc2cc(O)cc(O)c12` [GENISTEIN]: the values for the IC50 on Fatty acid synthase and in the experiment on Plasmodium falciparum [1] were 7 µM and 38.2 µM, respectively. Besides, the outcome in experiment [2] and in experiment [3] was inactive.

`COc1cc(O)c2c(=O)cc(-c3ccc(O)cc3)oc2c1` [GENKWANIN] registered an IC50 in the experiment with Plasmodium falciparum [1] of 111 µM. The outcome in experiment [4], in experiment [2] and in experiment [3] was inactive.

Turning to `COc1cc(-c2oc3cc(O)cc(O)c3c(=O)c2O)ccc1O` [ISORHAMNETIN], the IC50 in experiment [5] was determined as 5 µM; in experiment [6], 8.3 µM; with Plasmodium falciparum [1], 14.7 µM. Further, the outcome in experiment [4] was inactive.

For the compound `O=c1c(O)c(-c2ccc(O)cc2)oc2cc(O)cc(O)c12` [KAEMPFEROL], the half-maximal inhibitory concentration (IC50) in experiment [5] was determined as 20 µM; in experiment [6], 4 µM; with Plasmodium falciparum [1] it was 30.4 µM. In experiment [4], the outcome was inactive.

`COc1ccc(-c2cc(=O)c3c(O)c(O)c(OC)cc3o2)cc1` [LADANEIN]: the IC50 in the experiment with Plasmodium falciparum [1] came to 9 µM. The outcome in experiment [4], in experiment [2] and in experiment [3] was inactive.

The compound `O=C1C[C@@H](c2ccc(O)cc2)Oc2cc(O)cc(O)c21` [NARINGENIN] yielded an IC50 with Plasmodium falciparum [1] of 141 µM. Moreover, the result in experiment [4] and in experiment [2] was inactive. Besides, the result in experiment [3] was Active.

Compound `COc1cc(O)c2c(=O)c(OC)c(-c3ccc(OC)c(OC)c3)oc2c1` [RETUSIN] registered an IC50 in the experiment on Plasmodium falciparum [1] of 73.3 µM. For the same compound, the outcome in experiment [4], in experiment [2] and in experiment [3] was inactive.
